Reference: patent US20230340364A1, “Fabric Softening Compositions” (Colgate-Palmolive Company, priority 2020, published 2023)

Assay: Dispersibility of the preservative into the finished product
Format: physicochemical
Conditions: preservative post-added (IPBC 0.2%, DGH 0.1%)
Experimental: For 90 kg batch, initial 20% of water is heated to 47.7° C., the agitation is set to 32.5 Hz, then color (1 min of agitation), lactic acid (1 min of agitation), etidronic acid (1 min of agitation) and PQ7 (3 min of agitation) is added. Afterward, the pre-heated esterquat at 60-65° C. is added for 10 seconds and mixture for 5 min. After esterquat addition, the 75% of the remaining water (15° C.) is added and mixed for 5 min more. The final composition is completed with the addition of the rest of the components keeping the agitation at 35 Hz; thickener (10 min of agitation), blend of slurry fragrance capsules (water/capsules; 10:1) (5 min of agitation) and oil perfume (10 min of agitation). For the reference sample, 5% of additional water is post-added to the mixture (5 min of agitation). In the case of the control sample, 0.02% of DPIII is post added with the remaining water to cover the % of hole (5 min of agitation). For the alternative test compositions with IPBC, IPBC is post-added at 0.2% as is. […]
The negative control, positive control, Test composition 1, and Test composition 2, described in Table 1 of Example 1 are first evaluated for their dispersibility into the product and their impact on the viscosity, pH and stability (predictive methods). […] No significant difference in viscosity, pH and stability are identified for all the evaluated samples.

Structure (SMILES): CCCCNC(=O)OCC#CI [IPBC, 3-iodo-2-propynyl butylcarbamate]
- dispersibility by being directly post-added into the finished product: acceptable dispersibility

Structure (SMILES): CCCCCCCCCCCCNC(=N)N.Cl [DGH, Dodecylguanidinee Hydrochloride]
- dispersibility by being directly post-added into the finished product: acceptable dispersibility
